Data from US12030888B2, “Himastatin derivatives, and processes of preparation thereof, and uses thereof” (priority 2021, dated 2024).
≈ marks a conversion by molar mass, not a printed value. Where two headings read alike, the source gives them in different places.

Tests used:
[1] = test system: Bacillus subtilis (ATCC 6633); type: cell-based
Experimental: (§1) Bacillus subtilis subsp. spizizenii (ATCC 6633) and Streptomyces himastatinicus (ATCC 53653) were obtained from the American Type Culture Collection (ATCC). Methicillin-resistant and methicillin-susceptible Staphylococcus aureus (Newman), and vancomycin-resistant (V583) and vancomycin-susceptible (T7) Enterococcus faecalis were obtained from the lab of Dr. Roby P. Bhattacharyya (Massachusetts General Hospital).^6 B. subtilis was grown in brain-heart infusion (BHI) medium at 37° C., S. himastatinicus was grown in tryptone-yeast extract broth (ISP medium 2) at 28° C., E. faecalis was grown in Todd-Hewitt broth, and all other organisms were grown in lysogeny broth (LB) medium at 37° C.
(§2) Minimum inhibitory concentration (MIC) was determined using the broth microdilution method. 20-fold stocks of compound in DMSO were diluted 10-fold in MHB medium and 100 μL of each were added to the first well of a 96-well plate. 50 μL of the first well was then serially diluted through 50 μL MHB medium in wells 2-11. To prepare the bacterial culture, an overnight culture was diluted in MHB until the turbidity matched that of McFarland standard 0.5. Then, the culture was diluted 1:100 and added to wells 1-11, resulting in 2-fold dilutions of antibiotic beginning at 64 μg/mL and a final inoculum of 5×10^5 cfu/mL. 100 μL of MHB medium was added to well 12 as a sterility control, and a row containing no antibiotic was used as a growth control. The plate was incubated at the organism's respective growth temperature overnight (B. subtilis) or 72 h (S. himastatinicus) and the MIC was determined using OD600.
(§3) Minimum inhibitory concentration (MIC) was determined using the broth microdilution method.^7 20-fold (1.28 mg/mL) stocks of compound in dimethylsulfoxide, stored as frozen (−80° C.) 30-μL aliquots, were diluted 10-fold in Mueller Hinton broth (MHB) and a 100-μL sample of each was added to the first well of a 96-well plate. A 50-μL sample of the first well was then serially diluted two-fold through 50-μL NMB medium in wells 2-11. A bacterial culture was prepared from a frozen (−80° C.) stock in the organism's respective growth medium and grown overnight. The culture was then diluted in MHB until the turbidity matched that of McFarland standard 0.5 by measuring the optical density at 600 nm (1×10^8 cfu/mL). Then, the culture was diluted 1:100 and a 50-μL aliquot was added to wells 1-11, resulting in 2-fold dilutions of antibiotic from 64 μg/mL down to 0.0625 μg/mL and a final inoculum of 5×10^5 cfu/mL. A 100-μL aliquot of MHB medium was added to well 12 as a sterility control, and a row containing no antibiotic was used as a growth control. The plate was incubated at the organism's respective growth temperature overnight or 72 h (S. himastatinicus). The MIC was determined by observing the well density by eye and, with the exception of S. himastatinicus which grows in solid colonies in media, was confirmed by measuring the optical density of each well at 600 nm. At least two assays were conducted for each organism on identical lots of compound. No degradation of compound stocks in dimethylsulfoxide was observed by LC-MS analysis after being subjected to multiple freeze-thaw cycles.

Gram-positive bacteria = type: cell-based; details: for antibiotic activity (in words): relative to (−)-himastatin (1) where a derivative
Experimental: as §1, §2, §3

B. subtilis (ATCC 6633) = assay: Microscopy of membrane morphology at sub-lethal concentration, FM 4-64 stain; type: cell-based, Bacillus subtilis; details: sub-lethal concentration 0.25 μg/mL, 3 h at 37 °C
Experimental: B. subtilis (ATCC 6633) was used for all microscopy experiments. For time-course studies at lethal concentration, culture containing 1 μg/mL FM 4-64 was combined with medium containing himastatin before being immediately added to a 1% agarose pad containing 0.5 μg/mL sytox green (Invitrogen). One section of the agarose pad was then imaged every 5 minutes to monitor cell death. For studies of morphological changes in sub-lethal concentrations, culture was incubated with 0.25 μg/mL (−) or (+)-himastatin for 3 h at 37 C, before being combined with FM 4-64 and added to an agarose pad containing sytox green. Images were collected on a Zeiss AxioPlan2 upright microscope using phase-contrast and equipped with a Hamamatsu Orca-ER cooled CCD camera using standard filter sets for GFP (to visualize SYTOX green; excitation 470/40 nm and emission 525/50 nm), TxRED (to visualize FM 4-64; excitation 565/40 and emission 620/60 nm), and DIC (for phase-contrast). Additional imaged were collected with an RPI Spinning Disk Confocal microscope equipped with a Hamamatsu Orca-ER cooled CCD camera using standard filter sets for GFP (488 nm laser, emission 525/50 nm), RFP (561 nm laser, emission 605/70 nm), and brightfield.
B. subtilis (ATCC 6633) in Mueller Hinton broth (NMB) was used for all microscopy experiments. For time-course studies with natural himastatin at lethal concentration, a bacterial culture matching the optical density of McFarland standard 0.5 (1×10^8 cfu/mL) was supplemented with 1 μg/mL FM 4-64 before being combined with medium containing (−)- or (+)-himastatin (1) (2 μg/mL) immediately before imaging on a 1% agarose pad containing 0.5 μg/mL SYTOX Green (Invitrogen). One section of the agarose pad was then imaged every 5 min to monitor cell death. For studies of morphological changes in bacteria treated with sub-lethal concentrations, culture was incubated with 0.25 μg/mL (−)- or (+)-himastatin (1) for 3 h at 37° C., before being supplemented with 1 μg/mL FM 4-64 and added immediately to an agarose pad. […]

[2] = early investigation (ref. vii); cited from earlier work
[3] = test system: Methicillin-Sensitive S. aureus (Newman); type: cell-based, Staphylococcus aureus
Experimental: as §1, §2, §3

[4] = test system: Vancomycin-Sensitive E. faecalis (T7); type: cell-based, Enterococcus faecalis
Experimental: as §1, §2, §3

[5] = test system: Methicillin-Resistant Staphylococcus aureus; type: cell-based
Experimental: as §1, §2, §3

[6] = test system: Streptomyces himastatinicus (ATCC 53653); type: cell-based
Experimental: as §1, §2, §3

[7] = test system: Vancomycin-Resistant Enterococcus faecalis (V583); type: cell-based
Experimental: as §1, §2, §3

## CC(C)C[C@@H]1NC(=O)[C@H]2C[C@@H](O)CNN2C(=O)[C@H](C(C)C)OC(=O)[C@@H](C(C)C)NC(=O)[C@@H]2C[C@@]3(O)c4cc(-c5ccc6c(c5)[C@]5(O)C[C@H]7C(=O)N[C@H](C(C)C)C(=O)O[C@@H](C(C)C)C(=O)N8NC[C@H](O)C[C@@H]8C(=O)N[C@@H](CC(C)C)C(=O)N[C@H]([C@H](C)O)C(=O)N7[C@@H]5N6)ccc4N[C@H]3N2C(=O)[C@@H]([C@H](C)O)NC1=O [(−)-1, (−)-Himastatin, reference compound]
[1]; text and figure legend
  MIC in Bacillus subtilis: 1 µg/mL (≈ 0.673 µM)
Gram-positive bacteria
  MIC values: 1 to 2 µg/mL
  antibiotic activity (in words): potent antibiotic activity
B. subtilis (ATCC 6633)
  membrane morphology (FM 4-64): visual membrane defects
[2]
  antibiotic activity in the presence of sodium salts of phospholipids and fatty acids: reduced

## CC(C)[C@@H]1OC(=O)[C@@H](C(C)C)NC(=O)[C@@H]2C[C@@]3(O)c4cc(-c5ccc6c(c5)[C@]5(O)C[C@H]7C(=O)N[C@H](C(C)C)C(=O)O[C@@H](C(C)C)C(=O)N8NC[C@H](O)C[C@@H]8C(=O)N[C@@H](CCCCN=[N+]=[N-])C(=O)N[C@H]([C@H](C)O)C(=O)N7[C@@H]5N6)ccc4N[C@H]3N2C(=O)[C@@H]([C@H](C)O)NC(=O)[C@H](CCCCN=[N+]=[N-])NC(=O)[C@H]2C[C@@H](O)CNN2C1=O [(−)-32, Himastatin ε-Azidolysine Derivative]
[3]; Newman
  MIC (μg/mL) MSSA: 1 µg/mL (≈ 0.638 µM)
[4]; Vancomycin-Sensitive (T7)
  MIC (μg/mL) VSE faecalis: 0.5 µg/mL (≈ 0.319 µM)
[1]; ATCC 6633
  MIC (μg/mL) B. subtilis: 2 µg/mL (≈ 1.28 µM)
Gram-positive bacteria
  antibiotic activity (in words): essentially no impact on the antibiotic activity
[5]; Methicillin-Resistant
  MIC (μg/mL) MRSA: 2 µg/mL (≈ 1.28 µM)
[6]; ATCC 53653, 72 h
  MIC (μg/mL) S. himastatinicus: 8 µg/mL (≈ 5.1 µM)
[7]; Vancomycin-Resistant (V583)
  MIC (μg/mL) VRE faecalis: 1 µg/mL (≈ 0.638 µM)

## CC(C)C[C@H]1NC(=O)[C@@H]2C[C@H](O)CNN2C(=O)[C@@H](C(C)C)OC(=O)[C@H](C(C)C)NC(=O)[C@H]2C[C@]3(O)c4cc(-c5ccc6c(c5)[C@@]5(O)C[C@@H]7C(=O)N[C@@H](C(C)C)C(=O)O[C@H](C(C)C)C(=O)N8NC[C@@H](O)C[C@H]8C(=O)N[C@H](CC(C)C)C(=O)N[C@@H]([C@@H](C)O)C(=O)N7[C@H]5N6)ccc4N[C@@H]3N2C(=O)[C@H]([C@@H](C)O)NC1=O [(+)-1, Ent-Himastatin]
[3]; broth microdilution, Methicillin-Sensitive S. aureus (Newman), n ≥ 2
  MIC (μg/mL) MSSA: 2 µg/mL (≈ 1.35 µM)
[4]; broth microdilution, Vancomycin-Sensitive E. faecalis (T7), n ≥ 2
  MIC (μg/mL) VSE faecalis: 1 µg/mL (≈ 0.673 µM)
[1]; broth microdilution, Bacillus subtilis (ATCC 6633), growth inhibition determined by eye, n ≥ 2
  MIC (μg/mL) B. subtilis: 0.5 µg/mL (≈ 0.337 µM)
[5]; broth microdilution, Methicillin-Resistant Staphylococcus aureus, n ≥ 2
  MIC (μg/mL) MRSA: 4 µg/mL (≈ 2.69 µM)
[6]
  activity against the producing organism Streptomyces himastatinicus (in words): completely evade its own resistance mechanism and inhibit its growth
[6]; broth microdilution, Streptomyces himastatinicus (ATCC 53653), 72 h, n ≥ 2
  MIC (μg/mL) S. himastatinicus: 0.5 µg/mL (≈ 0.337 µM)
[6]; relative to (−)-himastatin (1)
  fold more active in inhibiting the growth of Streptomyces himastatinicus compared to (−)-himastatin (1): 4-8 fold
[7]; broth microdilution, Vancomycin-Resistant Enterococcus faecalis (V583), n ≥ 2
  MIC (μg/mL) VRE faecalis: 2 µg/mL (≈ 1.35 µM)
B. subtilis (ATCC 6633); listed as (+)-ent-himastatin
  membrane morphology (FM 4-64): identical
B. subtilis (ATCC 6633); listed as ent-(+)-himastatin
  membrane morphology (FM 4-64): visual membrane defects
